For orientation: IC50 means the midpoint of a concentration-inhibition curve. Higher therefore signals lower potency.

For one assay, the target named is FGFR4 kinase (Homo sapiens, UniProt P22455). Description: Inhibition of FGFR4 kinase activity (ULight-labeled JAK-1 peptide, EU665/EU615 reading). Type of assay: biochemical. As to conditions: FGFR4 kinase 3.85 nM, ATP 100 μM, enzymatic reaction 2 hours. How it is done: (§1) Assay of activity of small molecule compounds on inhibiting FGFR4 kinase and FGFR4 V550L mutant kinase. The assay method was as follows:
(§2) 1) Dilution of Compounds:
(§3) In a 96-well plate a, the compounds were serially diluted 3-fold with DMSO to form 11 concentrations, and the 12th concentration was pure DMSO (as a positive control); In a new 96-well plate b, the above solutions were diluted 25-fold with ultrapure water (DMSO concentration was 4%).
(§4) 2) Transferring Compounds to a 384-Well Plate:
(§5) The above solutions of compounds diluted with ultrapure water in the 96-well plate b were pipetted into corresponding wells of a 384-well plate.
(§6) 3) Adding 4× kinase solution: 2.5 μl of the above 4× kinase solutions were pipetted with a multi-channel pipette into corresponding reaction wells of the 384-well plate, and the mixture was mixed well and pre-reacted at room temperature for 5 minutes.
(§7) 4) Adding 2× substrate/ATP mixture: 5 μl of the above 2× substrate/ATP mixtures were pipetted with a multi-channel pipette into corresponding reaction wells of the 384-well plate.
(§8) 5) Negative control: negative control wells were set up in the 384-well plate by adding 2.5 μl of 4× substrate, 2.5 μl of 4× enzyme solution, 2.5 μl of 1× kinase Assay Buffer and 2.5 μl of ultrapure water containing 4% DMSO to each well.
(§9) 6) Centrifuging, mixing well, and reacting at room temperature in the dark for 2 hours.
(§10) 7) Terminating the Enzymatic Reaction:
(§11) 5 μl of the above 4× stop solutions were pipetted into corresponding wells of the 384-well plate, and the mixture was centrifuged, mixed well, and then reacted at room temperature for 5 minutes.
(§12) 8) Development of the Reaction:
(§13) 5 μl of the above 4× detection solutions were pipetted into corresponding wells of the 384-well plate, and the mixture was centrifuged, mixed well, and then reacted at room temperature for 1 hour.
(§14) 9) The 384-well plate was placed into a plate reader, and the signal was detected using the appropriate program.
(§15) 10) Analysis of IC50: Reading of well=10000*EU665 value/EU615 value Inhibition rate=(reading of positive control well−reading of assay well)/(reading of positive control well−reading of negative control well)*100%
(§16) The corresponding IC50 can be calculated by inputting the drug concentrations and corresponding inhibition rates into GraphPad Prism 5 and processing.
Assay Conditions for Screening FGFR4 Kinase Activity Inhibitory Molecule:
The final concentration of FGFR4 kinase in the reaction system was 3.85 nM, the final concentration of ATP was 100 μM, the final concentration of substrate ULight™-labeled JAK-1 (Tyr1023) Peptide was 100 nM, and the time for enzymatic reaction was 2 hours.
The highest final concentration of the compound in the reaction system was 2.5 μM. After serial 3-fold dilution, there were 11 concentrations in total, and the lowest final concentration was 0.042 nM. The final concentration of DMSO was 1%.

In a further assay the target is FGFR4 V550L kinase (Homo sapiens, UniProt P22455, V550L). Description: Inhibition of FGFR4 V550L mutant kinase activity (ULight-labeled PolyGT, EU665/EU615 reading). The assay is classed as biochemical. Conditions: FGFR4 V550L kinase 1 nM, ATP 10 μM, enzymatic reaction 2 hours. The protocol: as §1, §2, §3, §4, §5, §6, §7, §8, §9, §10, §11, §12, §13, §14, §15, §16
Assay Conditions for Screening FGFR4 V550L Kinase Activity Inhibitory Molecule:
The final concentration of FGFR4 V550L kinase in the reaction system was 1 nM, the final concentration of ATP was 10 μM, the final concentration of substrate ULight™-labeled PolyGT was 100 nM, and the time for enzymatic reaction was 2 hours.
The highest final concentration of the compound in the reaction system was 2.5 μM. After seral 3-fold dilution, there were 11 concentrations in total, and the lowest final concentration was 0.042 nM. The final concentration of DMSO was 1%.

Another assay has as its target T1, Ba/F3 ETV6-FGFR4 cells (Homo sapiens, UniProt P22455).
T1 construct: fused on or other part: N-terminal part of ETV6 (TEL), the oligomerising partner that makes the FGFR4 kinase constitutively active; P41212 (Transcription factor ETV6)
Nature of the assay: Inhibition of cell proliferation (CCK-8), Ba/F3 ETV6-FGFR4 cells. Type of assay: cell-based. As to conditions: 72 hours of incubation, read-out: Ba/F3 ETV6-FGFR4 IC50. How it is done: (§17) Compounds were assayed for inhibiting cell proliferation, and the specific method was as follows: • 1. Cells were cultured to a logarithmic growth phase, pipetted evenly, transferred to a 15 mL centrifuge tube, and centrifuged at 1000 rpm at room temperature for 4 minutes; • 2. The supernatant was discarded; 5 mL of complete medium was added and pipetted evenly; 10 μL of cell suspension was weighed, mixed well with 10 μL of 0.4% trypan blue, and counted under a cell counter; the proportion of living cells was ensured to be above 90%; • 3. The cell suspension was seeded into a 96-well plate (80 μL of cell suspension per well) according to the conditions shown in Table 5; in the outer 36 wells of the 96-well plate, no cells were added but only sterile water was added; only the inner 60 wells were used for cell assay and control; • 4. 5× compound dilution: the compounds were serially diluted 4-fold to give a total of 9 concentrations; 80-fold overall dilution was completed with complete medium, the resulting concentration was 5 times the final drug concentration, and DMSO concentration was 1.25%; • 5. 20 μL of the corresponding compounds with different concentrations were added to each well of assay wells of the 96-well plate; 20 μL of complete medium was added to positive and negative control wells and shaken well; and the final concentration of DMSO in each well was 0.25%; • 6. After 72 hours of incubation, 10 μL of CCK-8 reagent was added to each well and further incubated at 37° C. for 1-2 hours; and the OD value was read at 450 nm; 7. Cell survival rate (%)=[(As−Ab)/(Ac−Ab)]*100% • As: Assay well (medium containing cells, CCK-8, compound) • Ac: Control well (medium containing cells, CCK-8) • Ab: Blank well (medium without cell and compound, CCK-8) • 8. The values were imported into Graphpad Prism 5 software for IC50 calculation.

Assay [1] has as its target T2, Ba/F3 ETV6-FGFR4-V550L cells (Homo sapiens, UniProt P22455, V550L, cells depend on it).
T2 construct: fused on or other part: N-terminal part of ETV6 (TEL), the oligomerising partner of the fusion; already named as the first entry; P41212 (Transcription factor ETV6)
Description: Inhibition of cell proliferation (CCK-8), Ba/F3 ETV6-FGFR4-V550L cells. The assay is classed as cell-based. Conditions: 72 hours of incubation, read-out: Ba/F3 ETV6-FGFR4-V550L IC50. How it is done:
as §17

FGFR4 V550L kinase, sequence (P22455 22-802 V550L): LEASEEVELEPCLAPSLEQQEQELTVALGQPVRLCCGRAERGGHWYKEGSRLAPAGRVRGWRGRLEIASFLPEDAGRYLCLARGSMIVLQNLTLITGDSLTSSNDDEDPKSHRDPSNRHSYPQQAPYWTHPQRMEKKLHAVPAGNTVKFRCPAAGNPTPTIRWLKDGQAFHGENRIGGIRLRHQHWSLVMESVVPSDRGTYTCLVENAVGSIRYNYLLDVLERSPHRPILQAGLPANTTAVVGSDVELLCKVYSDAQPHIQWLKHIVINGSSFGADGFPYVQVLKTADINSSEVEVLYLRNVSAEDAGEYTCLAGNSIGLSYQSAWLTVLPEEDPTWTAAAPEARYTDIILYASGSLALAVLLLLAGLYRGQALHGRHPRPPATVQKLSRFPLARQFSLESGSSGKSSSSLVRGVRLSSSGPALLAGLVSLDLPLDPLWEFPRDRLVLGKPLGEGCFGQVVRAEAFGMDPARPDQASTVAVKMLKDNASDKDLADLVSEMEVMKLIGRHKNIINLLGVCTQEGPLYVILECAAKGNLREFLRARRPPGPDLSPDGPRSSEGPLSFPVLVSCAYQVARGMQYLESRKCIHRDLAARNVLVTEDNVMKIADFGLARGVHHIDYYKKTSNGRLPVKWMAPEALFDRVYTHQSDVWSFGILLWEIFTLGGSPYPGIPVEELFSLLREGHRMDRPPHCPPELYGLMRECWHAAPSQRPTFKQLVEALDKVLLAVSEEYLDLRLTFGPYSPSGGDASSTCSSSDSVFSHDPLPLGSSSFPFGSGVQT
T2 sequence (P22455 whole entry V550L, the tested form may be a part): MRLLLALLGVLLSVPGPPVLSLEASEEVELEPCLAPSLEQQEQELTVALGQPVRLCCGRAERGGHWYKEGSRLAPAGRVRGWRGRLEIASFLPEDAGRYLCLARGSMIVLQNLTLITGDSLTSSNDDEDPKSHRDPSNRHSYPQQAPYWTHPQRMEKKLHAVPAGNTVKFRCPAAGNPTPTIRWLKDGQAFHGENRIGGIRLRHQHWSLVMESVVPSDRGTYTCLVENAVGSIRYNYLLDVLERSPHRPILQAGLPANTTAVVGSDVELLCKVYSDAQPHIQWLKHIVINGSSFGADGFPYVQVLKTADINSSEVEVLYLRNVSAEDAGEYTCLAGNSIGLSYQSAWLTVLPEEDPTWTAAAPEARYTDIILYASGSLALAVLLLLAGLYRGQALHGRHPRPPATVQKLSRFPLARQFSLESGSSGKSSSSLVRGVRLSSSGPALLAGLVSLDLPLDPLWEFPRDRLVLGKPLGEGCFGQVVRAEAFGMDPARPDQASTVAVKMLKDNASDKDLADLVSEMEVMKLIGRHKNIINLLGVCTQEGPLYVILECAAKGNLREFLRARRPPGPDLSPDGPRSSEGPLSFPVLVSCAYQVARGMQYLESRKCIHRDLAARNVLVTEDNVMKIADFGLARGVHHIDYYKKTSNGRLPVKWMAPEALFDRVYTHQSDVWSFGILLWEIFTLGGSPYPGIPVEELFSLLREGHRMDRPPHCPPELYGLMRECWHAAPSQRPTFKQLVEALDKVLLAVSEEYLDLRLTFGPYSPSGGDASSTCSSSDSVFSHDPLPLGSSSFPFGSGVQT
FGFR4 kinase, sequence (P22455 22-802): as the sequence (P22455 22-802 V550L) above, with L529V counted along it
T1 sequence (P22455 whole entry, change not shown, the tested form may be a part): as the sequence (P22455 whole entry V550L, the tested form may be a part) above, with L550V counted along it

Regarding `C=CC(=O)Nc1cc(N2CCC(N3CCOCC3)CC2)c(F)cc1Nc1ncc(C#N)c(Nc2ccccc2OC(C)C)n1` [Example 19, N-(2-((5-cyano-4-((2-isopropoxyphenyl)amino)pyrimidin-2-yl)amino)-4-fluoro-5-(4-morpholinopiperidin-1-yl)phenyl) acrylamide], the IC50 fell in the range of 100 to 1000 nM against FGFR4 kinase and 10 to 50 nM against FGFR4 V550L kinase. In addition, the GI50 (at Ba/F3 ETV6-FGFR4 cells; in assay [1]) was not above 10 nM each time.

`C=CC(=O)Nc1cc(N2CCC(N3CCN(C)CC3)CC2)c(F)cc1Nc1ncc(C#N)c(Nc2ccccc2OC(C)C)n1` [Example 20, N-(2-((5-cyano-4-((2-isopropoxyphenyl)amino)pyrimidin-2-yl)amino)-4-fluoro-5-(4-(4-methylpiperazin-1-yl)piperidin-1-yl)phenyl) acrylamide]: the IC50 at FGFR4 kinase and at FGFR4 V550L kinase was 10 to 50 nM each time. For the same molecule, the GI50 (on Ba/F3 ETV6-FGFR4 cells; in assay [1]) was not above 10 nM throughout.

Turning to `C=CC(=O)Nc1cc(N2CCN(CC)CC2)ccc1Nc1ncc(C#N)c(Nc2c(F)cccc2OC(C)C)n1` [Example 21, N-(2-((5-cyano-4-((2-fluoro-6-isopropoxyphenyl)amino)pyrimidin-2-yl)amino)-5-(4-ethylpiperazin-1-yl)phenyl) acrylamide], the IC50 on FGFR4 kinase and on FGFR4 V550L kinase was 10 to 50 nM in each case. For the same molecule, the GI50 at Ba/F3 ETV6-FGFR4 cells is not above 10 nM; in assay [1] it was 10 to 50 nM.

As for `C=CC(=O)Nc1cc(N2CCN(CC)CC2)ccc1Nc1ncc(C#N)c(Nc2c(C)cccc2OC(C)C)n1` [Example 22, N-(2-((5-cyano-4-((2-isopropoxy-6-methylphenyl)amino)pyrimidin-2-yl)amino)-5-(4-ethylpiperazin-1-yl)phenyl) acrylamide], the IC50 against FGFR4 kinase and on FGFR4 V550L kinase was 100 to 1000 nM each time. Also, the GI50 (on Ba/F3 ETV6-FGFR4 cells; in assay [1]) was 100 to 1000 nM in each case.

As for `C=CC(=O)Nc1cc(N2CCN(CC)CC2)ccc1Nc1ncc(C#N)c(Nc2cc(F)ccc2OC(C)C)n1` [Example 23, N-(2-((5-cyano-4-((5-fluoro-2-isopropoxyphenyl)amino)pyrimidin-2-yl)amino)-5-(4-ethylpiperazin-1-yl)phenyl) acrylamide], the results for the IC50 at FGFR4 kinase and at FGFR4 V550L kinase were 50 to 100 nM and not above 10 nM, respectively. For the same molecule, the GI50 (on Ba/F3 ETV6-FGFR4 cells; in assay [1]) was not above 10 nM in each case.

For the molecule `C=CC(=O)Nc1cc(N2CCN(CC)CC2)ccc1Nc1ncc(C#N)c(Nc2cc(C)ccc2OC(C)C)n1` [Example 24, N-(2-((5-cyano-4-((2-isopropoxy-5-methylphenyl)amino)pyrimidin-2-yl)amino)-5-(4-ethylpiperazin-1-yl)phenyl) acrylamide], the IC50 at FGFR4 kinase and on FGFR4 V550L kinase was 10 to 50 nM in each case. Further, the values for the GI50 (at Ba/F3 ETV6-FGFR4 cells; in assay [1]) were 10 to 50 nM and not above 10 nM, respectively.

`C=CC(=O)Nc1cc(N2CCN(CC)CC2)ccc1Nc1ncc(C#N)c(Nc2cc(C#N)ccc2OC(C)C)n1` [Example 25, N-(2-((5-cyano-4-((5-cyano-2-isopropoxyphenyl)amino)pyrimidin-2-yl)amino)-5-(4-ethylpiperazin-1-yl)phenyl) acrylamide]: the IC50 was 50 to 100 nM at FGFR4 kinase and 10 to 50 nM at FGFR4 V550L kinase. Moreover, the GI50 (on Ba/F3 ETV6-FGFR4 cells; in assay [1]) was 10 to 50 nM each time.

As to `C=CC(=O)Nc1cc(N2CCN(CC)CC2)ccc1Nc1ncc(C#N)c(Nc2cc(C(F)(F)F)ccc2OC(C)C)n1` [Example 26, N-(2-((5-cyano-4-((2-isopropoxy-5-(trifluoromethyl)phenyl)amino)pyrimidin-2-yl)amino)-5-(4-ethylpiperazin-1-yl)phenyl) acrylamide], the IC50 at FGFR4 kinase and at FGFR4 V550L kinase was 100 to 1000 nM each time. Further, the GI50 (at Ba/F3 ETV6-FGFR4 cells; in assay [1]) was 100 to 1000 nM in each case.

On to `C=CC(=O)Nc1cc(N2CCN(CC)CC2)ccc1Nc1ncc(C#N)c(Nc2ccc(F)cc2OC(C)C)n1` [Example 27, N-(2-((5-cyano-4-((4-fluoro-2-isopropoxyphenyl)amino)pyrimidin-2-yl)amino)-5-(4-ethylpiperazin-1-yl)phenyl) acrylamide], for which the half-inhibitory concentration (IC50) against FGFR4 kinase and against FGFR4 V550L kinase was not above 10 nM in each case. Further, the GI50 (on Ba/F3 ETV6-FGFR4 cells; in assay [1]) was not above 10 nM each time.

For the molecule `C=CC(=O)Nc1cc(N2CCN(CC)CC2)ccc1Nc1ncc(C#N)c(Nc2ccc(O)cc2OC(C)C)n1` [Example 28, N-(2-((5-cyano-4-((4-hydroxy-2-isopropoxyphenyl)amino)pyrimidin-2-yl)amino)-5-(4-ethylpiperazin-1-yl)phenyl) acrylamide], the half-maximal inhibitory concentration (IC50) against FGFR4 kinase and against FGFR4 V550L kinase was not above 10 nM each time. Further, the figures for the GI50 (on Ba/F3 ETV6-FGFR4 cells; in assay [1]) were 100 to 1000 nM and 50 to 100 nM, respectively.

Turning to `C=CC(=O)Nc1cc(N2CCN(CC)CC2)ccc1Nc1ncc(C#N)c(Nc2ccc(Cl)cc2OC(C)C)n1` [Example 29, N-(2-((4-((4-chloro-2-isopropoxyphenyl)amino)-5-cyanopyrimidin-2-yl)amino)-5-(4-ethylpiperazin-1-yl)phenyl) acrylamide], the 50% inhibitory concentration (IC50) on FGFR4 kinase and on FGFR4 V550L kinase was 10 to 50 nM each time. The GI50 (on Ba/F3 ETV6-FGFR4 cells; in assay [1]) was not above 10 nM each time.

With `C=CC(=O)Nc1cc(N2CCN(CC)CC2)ccc1Nc1ncc(C#N)c(Nc2ccc(C)cc2OC(C)C)n1` [Example 30, N-(2-((5-cyano-4-((2-isopropoxy-4-methylphenyl)amino)pyrimidin-2-yl)amino)-5-(4-ethylpiperazin-1-yl)phenyl) acrylamide], the IC50 on FGFR4 kinase is 10 to 50 nM; against FGFR4 V550L kinase it was not above 10 nM. Besides, the GI50 (at Ba/F3 ETV6-FGFR4 cells; in assay [1]) was not above 10 nM throughout.

As to `C=CC(=O)Nc1cc(N2CCN(CC)CC2)ccc1Nc1ncc(C#N)c(Nc2ccc(OC)cc2OC(C)C)n1` [Example 31, N-(2-((5-cyano-4-((2-isopropoxy-4-methoxyphenyl)amino)pyrimidin-2-yl)amino)-5-(4-ethylpiperazin-1-yl)phenyl) acrylamide], the values for the IC50 on FGFR4 kinase and against FGFR4 V550L kinase were not above 10 nM and 10 to 50 nM, respectively. Besides, the GI50 (at Ba/F3 ETV6-FGFR4 cells; in assay [1]) was not above 10 nM each time.

The values above are taken from patent US12582654B2, “Cyano-substituted pyridine and cyano-substituted pyrimidine compound and preparation method therefor and application thereof” (BEIJING SCITECH-MQ PHARMACEUTICALS LIMITED, priority 2019, dated 2026).
